What was measured:
Assay in all cases: Agarose dilution MIC assay
Format in all cases: cell-based
K. pneumoniae = test system: K. pneumoniae
From the text: (§1) The agarose dilution assay measures antimicrobial activity of peptides and peptide analogues. The activity is expressed as the minimum inhibitory concentration (MIC) in μg/ml of the peptide.
(§2) In order to mimic in vivo conditions, calcium and magnesium supplemented Mueller Hinton broth is used in combination with a low EEO agarose as the bacterial growth medium. Agarose, rather than agar, is used as the charged groups in agar prevent peptide diffusion through the medium. The medium is autoclaved, then cooled to 50-55° C. in a water bath before aseptic addition of a peptide solution. The same volume of different concentrations of peptide solution is added to the cooled, molten agarose that is then poured into a petri plate to a depth of 3-4 mm and allowed to solidify.
(§3) The bacterial inoculum is adjusted to a 0.5 McFarland turbidity standard (PML Microbiological) and then diluted 1:10 before application on to the agarose plate. The final inoculum applied to the agarose is approximately 10^4 CFU in a 5-8 mm diameter spot. The agarose plates are incubated at 35-37° C. for 16 to 20 hours.

S. maltophilia = S. maltophilia strain SMA002
From the text: as §1, §2, §3

E. cloacae = E. cloacae strain ECL007
From the text: as §1, §2, §3

C. neoformans = C. neoformans strain CNE001
From the text: as §1, §2, §3

S. pneumoniae = S. pneumoniae strain SPN002
From the text: as §1, §2, §3

S. epidermidis = conditions: for Minimum Inhibitory Concentration: S. epidermidis strain SEP010, agarose dilution
From the text: as §1, §2, §3

A. calcoaceticus = A. calcoaceticus strain ACA002
From the text: as §1, §2, §3

E. coli = E. coli strain ECO005
From the text: as §1, §2, §3

C. jeikeium = C. jeikeium strain CJK005
From the text: as §1, §2, §3

S. marcescens = S. marcescens strain SMS003
From the text: as §1, §2, §3

S. aureus = conditions: for Minimum Inhibitory Concentration: S. aureus strain SAU014, agarose dilution
From the text: as §1, §2, §3

P. aeruginosa = conditions: for Minimum Inhibitory Concentration: P. aeruginosa strain PAE004, agarose dilution
From the text: as §1, §2, §3

C. albicans = conditions: for Minimum Inhibitory Concentration: C. albicans strain CAL002, agarose dilution
From the text: as §1, §2, §3

E. faecalis = E. faecalis strain EFS001
From the text: as §1, §2, §3

S. mitis = S. mitis strain SMT014
From the text: as §1, §2, §3

S. pyogenes = S. pyogenes strain SPY001
From the text: as §1, §2, §3

Substance	Minimum Inhibitory Concentration (K. pneumoniae; K. pnenmoniae strain KPN001)	Minimum Inhibitory Concentration (S. maltophilia)	Minimum Inhibitory Concentration (E. cloacae)	Minimum Inhibitory Concentration (C. neoformans)	Minimum Inhibitory Concentration (S. pneumoniae)	Minimum Inhibitory Concentration (S. epidermidis)	Minimum Inhibitory Concentration (A. calcoaceticus)	Minimum Inhibitory Concentration (E. coli)	Minimum Inhibitory Concentration (C. jeikeium)	Minimum Inhibitory Concentration (S. marcescens)	Minimum Inhibitory Concentration (S. aureus)	Minimum Inhibitory Concentration (P. aeruginosa)	Minimum Inhibitory Concentration (C. albicans)	Minimum Inhibitory Concentration (E. faecalis)	Minimum Inhibitory Concentration (S. mitis)	Minimum Inhibitory Concentration (S. pyogenes)	Minimum Inhibitory Concentration (K. pneumoniae; K. pneumoniae strain KPN001)	further results
R L W W V V W W R R [Peptide 11F56CN]	2 µg/mL	2 µg/mL	32 µg/mL	8 µg/mL	2 µg/mL	1 µg/mL	1 µg/mL	2 µg/mL	0.5 µg/mL	>128 µg/mL	1 µg/mL	32 µg/mL	16 µg/mL	2 µg/mL	1 µg/mL	1 µg/mL		
W (Orn) W W (Orn) V A W (Orn) W V (Orn) W [Peptide 11J58CN]		2 µg/mL	1.6e-05 µg/mL	2 µg/mL	2 µg/mL		1e-06 µg/mL		0.5 µg/mL			1.6e-05 µg/mL		3.2e-05 µg/mL	1e-06 µg/mL		2 µg/mL	
W V R L W W R R V W [Peptide 11F93CN]		8 µg/mL		8 µg/mL	4 µg/mL				0.5 µg/mL		2e-06 µg/mL						64 µg/mL	
I L R R W V W W V W R R K [Peptide 11F5CN]	64 µg/mL	16 µg/mL	128 µg/mL	8 µg/mL	4 µg/mL	2 µg/mL	4 µg/mL	16 µg/mL	0.5 µg/mL	>128 µg/mL	8 µg/mL	64 µg/mL	32 µg/mL	16 µg/mL	2 µg/mL	2 µg/mL		
R L F V W W V F R R [Peptide 11F64CN]	2 µg/mL	1 µg/mL	16 µg/mL	8 µg/mL	2 µg/mL	1 µg/mL	2 µg/mL	2 µg/mL	0.5 µg/mL	>128 µg/mL	1 µg/mL	16 µg/mL	16 µg/mL	2 µg/mL	1 µg/mL	1 µg/mL		
I L R W P W W P W R R K [Peptide 11B7CN]																		MIC (S. epidermidis; S. epidermidis (SE010), Table 6): Organism Tested: S. epidermidis (SE010) MIC = 4 ug/ml; MIC (S. aureus; S. aureus (SA016), Table 6): Organism Tested: S. aureus (SA016) MIC = 2 ug/ml; MIC (P. aeruginosa; P. aeruginosa (PA004), Table 6): Organism Tested: P. aeruginosa (PA004) MIC = 128 ug/ml; MIC (C. albicans; C. albicans (CA002), Table 6): Organism Tested: C. albicans (CA002) MIC = 64 ug/ml
W P W W P W R R K [Peptide 11G27CN]		64 µg/mL		16 µg/mL	32 µg/mL	8e-06 µg/mL	1.6e-05 µg/mL	6.4e-05 µg/mL	0.5 µg/mL			>0.000128 µg/mL					>128 µg/mL	
R L G G G W V W W V W R R [Peptide 11F50CN]	16 µg/mL	8 µg/mL	>128 µg/mL	16 µg/mL	2 µg/mL	1 µg/mL	2 µg/mL	4 µg/mL	0.5 µg/mL	>128 µg/mL	2 µg/mL	>128 µg/mL	32 µg/mL	16 µg/mL	1 µg/mL	1 µg/mL		
W (Orn) W W (Orn) P (Orn) W (Orn) W P (Orn) W [Peptide 11J67CN]		1 µg/mL		2 µg/mL	2 µg/mL		1e-06 µg/mL		<0.25 µg/mL		2e-06 µg/mL			6.4e-05 µg/mL			8 µg/mL	
W R W W K P K W R W P K W [Peptide 11J02ACN]		8 µg/mL	>3.2e-05 µg/mL	16 µg/mL	16 µg/mL			1.6e-05 µg/mL	0.5 µg/mL		8e-06 µg/mL			6.4e-05 µg/mL			32 µg/mL	
W R W W K V W R W V K W [Peptide 11J36CN]		2 µg/mL		4 µg/mL	2 µg/mL				0.5 µg/mL						1e-06 µg/mL		4 µg/mL	
W (Dab) W W (Dab) P (Dab) W (Dab) W P (Dab) W [Peptide 11J68CN]		4 µg/mL	1.6e-05 µg/mL	1 µg/mL	1 µg/mL		5e-07 µg/mL		<0.25 µg/mL			4e-06 µg/mL				5e-07 µg/mL	4 µg/mL	
